For series [1], the system named is 3T3-L1. Put plainly: Cytotoxicity against mouse 3T3L1 cells. It is filed as cell-based.
Series [2] relates to 3T3-L1. Put plainly: Inhibition of fat-accumulation in mouse 3T3L1 cells. It is filed as functional, cell-based.
Series [3] relates to 3T3-L1. The series can be described thus: Selectivity index, ratio of IC50 for mouse 3T3L1 cells to IC50 for fat-accumulation in mouse 3T3L1 cells. It is filed as functional.
The test system of series [4] is 3T3-L1. Put plainly: Cytotoxicity against mouse 3T3L1 cells at 62 uM. Conditions: 3t3-l1, 62 µM. It is filed as cell-based.

Each structure is given as a SMILES string. Non-standard residues stand in square brackets, D forms with d. Residues, ends and D or L forms follow the SMILES beside them. d(aIle) = CC[C@H](C)[C@@H](N)C(=O)O; NMeF = CN[C@@H](Cc1ccccc1)C(=O)O; dNMeF = CN[C@H](Cc1ccccc1)C(=O)O; NMeA = CN[C@@H](C)C(=O)O

`CC[C@H](C)[C@H]1NC(=O)[C@@H](Cc2ccccc2)N(C)C(=O)[C@H](C)N(C)C(=O)[C@H](CC(C)C)NC(=O)[C@H](Cc2ccccc2)N(C)C(=O)[C@H](C(C)C)NC(=O)[C@@H](C(C)C)NC1=O` (cyclo(L[NMeA][dNMeF][d(aIle)][dV]V[NMeF])): the half-maximal inhibitory concentration (IC50) in the series on 3T3-L1 [1] is above 240 µM; with 3T3-L1 [2], 42 µM. Further, in the series on 3T3-L1 [3], the “Ratio IC50” value was above 12.3.
Consider `CC[C@H](C)[C@H]1NC(=O)[C@@H](Cc2ccoc2)N(C)C(=O)[C@H](C)N(C)C(=O)[C@H](CC(C)C)NC(=O)[C@H](Cc2ccoc2)N(C)C(=O)[C@H](C(C)C)NC(=O)[C@@H](C(C)C)NC1=O` [RHIZONIN A], for which the IC50 was 62 µM in the series with 3T3-L1 [1] and 55 µM in the series with 3T3-L1 [2]. Also, the Activity in the series with 3T3-L1 [4] is 70%. Besides, the “Ratio IC50” value in the series on 3T3-L1 [3] was found to be 1.

Broadly, the IC50 is the midpoint of a concentration-inhibition curve. A high value points to weaker potency in that assay.

These data come from ChEMBL document CHEMBL1143273, “Structure-based hybridization of the bioactive natural products rhizonin A and ternatin leading to a selective fat-accumulation inhibitor against 3T3-L1 adipocytes” (Bioorg Med Chem Lett, 2009).
